Laboratory results taken from patent US11279714B2, “Anti-infective compounds” (priority 2014, dated 2022).
In brackets after ≈: the same amount, converted by molar mass.

Experiments:
[1] = tested on: M. tuberculosis H37Rv expressing the green fluorescent protein (H37Rv-GFP); assay: microbe, parasite or virus in culture; type: cell-based; details: Mycobacterium tuberculosis, H37RV, 120 h; read-out: QUM (MIC50)
[2] = tested on: Raw 264.7 cells infected with H37Rv-GFP; assay: microbe, parasite or virus in culture; type: cell-based, M. tuberculosis; details: Mycobacterium tuberculosis, H37RV, 120 h; read-out: QIM (MIC50)

SMILES | MIC50 [1] | MIC50 [2] | melting point
COc1ccc(NC(=O)c2cc3sc(N4CCC(OCc5ccccc5)CC4)nc3s2)cc1 [Compound 77] | 1 to 20 µM (≈ 0.48 to 9.59 µg/mL) | < 1 µM | 190.3 °C
O=C(Nc1ccc(-c2n[nH]cc2F)cc1)c1cc2sc(N3CCOCC3)nc2s1.O=C(O)C(F)(F)F [Compound 159] | 1 to 20 µM | < 1 µM | 287.2 °C
CCN(Cc1ccc(OC)cc1)c1nc2sc(C(=O)Nc3ccc(OC)cc3)cc2s1 [Compound 114] | 1 to 20 µM (≈ 0.454 to 9.07 µg/mL) | < 1 µM | 112 °C
O=C(Nc1ccc(F)nc1)c1cc2sc(N3CCC(CO)CC3)nc2s1 [Compound 143] | < 1 µM | < 1 µM | 240.8 °C
Cc1nc2cc(NC(=O)c3cc4sc(N5CCOCC5C(=O)N(C)C)nc4s3)ccc2o1 (centres unmarked) [Compound 175] | > 20 µM | > 20 µM | 288.6 °C
CCC1COCCN1c1nc2sc(C(=O)Nc3ccc4oc(C)nc4c3)cc2s1 (centres unmarked) [Compound 151] | 1 to 20 µM (≈ 0.429 to 8.57 µg/mL) | < 1 µM | 176 °C
COC(=O)c1ccc(N(C)C(=O)c2cc3nc(N4CCCCC4)sc3s2)cc1 [Compound 31] | > 20 µM |  | 178.5 °C
O=C(Nc1ccc(C(F)(F)F)cc1)c1cc2nc(N3CCCCC3)sc2s1 [Compound 33] | > 20 µM |  | 228.6 °C
COC(=O)C1CCC(NC(=O)c2cc3nc(N4CCCCC4)sc3s2)CC1 (centres unmarked) [Compound 30] | > 20 µM |  | 191 °C
Cc1nc2ccc(NC(=O)c3cc4nc(N5CCCCC5)sc4s3)cc2o1 [Compound 34] | > 20 µM |  | 213 °C
O=C(Nc1ccc(OCc2ccccc2)cc1)c1cc2sc(N3CCCCC3)nc2s1 [Compound 44] | > 20 µM | < 1 µM | 
O=C(Nc1ccc(F)cc1)c1cc2sc(NC3CCN(Cc4ccc(F)cc4)CC3)nc2s1 [Compound 314] | < 1 µM | < 1 µM | 
COC(=O)C1CCN(C(=O)c2cc3nc(N4CCCCC4)sc3s2)CC1 [Compound 24] | 1 to 20 µM (≈ 0.394 to 7.87 µg/mL) | > 20 µM | 
CN(C)C(=O)CC1CCN(c2nc3sc(C(=O)Nc4ccc(-c5ccc(F)nc5)cc4)cc3s2)CC1 [Compound 351] | < 1 µM | < 1 µM | 
CN1CCCC(Nc2nc3sc(C(=O)Nc4ccc(F)cc4)cc3s2)C1 (centres unmarked) [Compound 311] | > 20 µM | 1 to 20 µM (≈ 0.391 to 7.81 µg/mL) | 
CN(C)C(=O)C1CCN(c2nc3sc(C(=O)Nc4ccc(-c5ccc(F)nc5)cc4)cc3s2)CC1 [Compound 216] | < 1 µM | < 1 µM | 
Cc1ccc(-c2ccc(NC(=O)c3cc4sc(N5CCOCC5)nc4s3)cc2)nc1 [Compound 218] | > 20 µM | < 1 µM | 
Cc1ccc(-c2ccc(NC(=O)c3cc4sc(N(C)C)nc4s3)cc2)cn1 [Compound 240] | > 20 µM | < 1 µM | 
COc1ccc(CN(CCO)c2nc3sc(C(=O)Nc4ccc5oc(C)nc5c4)cc3s2)cc1 [Compound 248] | 1 to 20 µM (≈ 0.495 to 9.89 µg/mL) | < 1 µM | 
Cc1nc2cc(NC(=O)c3cc4sc(N5CCC(Nc6ccc(F)cc6)CC5)nc4s3)ccc2o1 [Compound 320] | 1 to 20 µM (≈ 0.508 to 10.2 µg/mL) | < 1 µM | 
Cc1nc2cc(NC(=O)c3cc4sc(NCCN5CCCCC5)nc4s3)ccc2o1 [Compound 297] | > 20 µM | 1 to 20 µM (≈ 0.442 to 8.83 µg/mL) | 
COCCN(C)c1nc2sc(C(=O)Nc3ccc(-c4ccc(OC)nc4)cc3)cc2s1 [Compound 265] | < 1 µM | < 1 µM | 
COc1ccc(Cn2cc(F)c(-c3ccc(NC(=O)c4cc5sc(N6CCOCC6)nc5s4)cc3)n2)cc1 [Compound 158] | 1 to 20 µM (≈ 0.55 to 11 µg/mL) | < 1 µM | 
Cc1nc2cc(NC(=O)c3sc4nc(N5CCOCC5)sc4c3OCc3ccccc3)ccc2o1 [Compound 185] | > 20 µM | > 20 µM | 
COCCN(C)c1nc2sc(C(=O)Nc3ccc(-c4ccc(C)cn4)cc3)cc2s1 [Compound 262] | < 1 µM | < 1 µM | 
